Source: patent US4994485A, “Thio compounds having fungicidal activity” (Duphar International Research B.V., priority 1986, dated 1991)

Key:
Format in all cases: cell-based
Fusarium culmorum = test: In vitro test on activity against Fusarium culmorum; conditions: read-out: growth inhibition of the fungus
Pythium splendens = test: In vitro test on activity against Pythium splendens; conditions: Globisporangium splendens, read-out: growth inhibition of the fungus
Leptosphaeria nodorum = test: In vitro test on activity against Leptosphaeria nodorum; conditions: Parastagonospora nodorum, read-out: growth inhibition of the fungus
Procedure: The compound to be tested is processed in a culture medium consisting of 1% by weight of glucose, 0.2% by weight of a yeast extract (marmite), 0.5% by weight of a protein (pepton), 2.5% by weight of agar-agar, and 95.8% by weight of water, in petri dishes in concentrations of 3 and 10 ppm. The petri dishes are inoculated with the plant-pathogenic fungus Pyrenophora graminea and then kept at a temperature of 20° C. After 48 hours the growth-inhibiting activity of the compounds is determined visually. For comparison, the known substance (b) (see EXAMPLE XV) is also tested.
Compounds according to the invention are tested on i Leptosphaeria nodorum in the same manner as described in EXAMPLE XIX.

Compound: C[S+]([O-])c1sc2cccc(Cl)c2c1C#N (centres unmarked) [(11), 2-methylsulphinyl-3-cyano-4-chloro-benzothiophene]
- inhibition at 30 ppm (Fusarium culmorum): ≥ 75%

Compound: CCS(=O)(=O)c1sc(C#N)cc1C#N [(16), 2-ethylsulphonyl-3,5-dicyanothiophene]
- inhibition at 10 ppm (Pythium splendens): ≥ 95%

Compound: CC[S+]([O-])c1sc(C(C)=O)c(NC)c1C#N (centres unmarked) [(17), 2-ethylsulphinyl-3-cyano-4-N-methylamino-5-acetylthiophene]
- inhibition at 10 ppm (Pythium splendens): ≥ 95%
- inhibition at 30 ppm (Leptosphaeria nodorum): ≥ 85%

Compound: CCS(=O)(=O)c1sc(C(C)=O)c(Cl)c1C#N [(18), 2-ethylsulphonyl-3-cyano-4-chloro-5-acetylthiophene]
- inhibition at 10 ppm (Pythium splendens): ≥ 95%

Compound: CC[S+]([O-])c1sc2cc(Cl)ccc2c1C#N (centres unmarked) [(20), 2-ethylsulphinyl-3-cyano 6-chloro-benzothiophene]
- inhibition at 30 ppm (Leptosphaeria nodorum): ≥ 85%

Compound: CCS(=O)(=O)c1sc(C(C)=O)cc1C#N [(21), 2-ethylsulphonyl-3-cyano-5-acetylthiophene]
- inhibition at 10 ppm (Pythium splendens): ≥ 95%

Compound: CCS(=O)(=O)c1sc(C#N)c(Cl)c1C#N [(22), 2-ethylsulphonyl-3,5 dicyano-4-chlorothiophene]
- inhibition at 10 ppm (Pythium splendens): ≥ 95%
- inhibition at 30 ppm (Fusarium culmorum): ≥ 75%

Compound: CC[S+]([O-])c1sc(C(C)=O)c(OC)c1C#N (centres unmarked) [(23), 2-ethylsulphinyl-3-cyano-4-methoxy-5-acetylthiophene]
- inhibition at 30 ppm (Fusarium culmorum): ≥ 75%
- inhibition at 30 ppm (Leptosphaeria nodorum): ≥ 85%

Compound: COc1c(C(C)=O)sc([S+](C)[O-])c1C#N (centres unmarked) [(25), 2-methylsulphinyl-3-cyano-4-methoxy-5-acetylthiophene]
- inhibition at 10 ppm (Pythium splendens): ≥ 95%

Compound: C[S+]([O-])c1sc(C=O)c(-c2ccc(Cl)cc2)c1C#N (centres unmarked) [(26), 2-methylsulphinyl-3-cyano-4-(4-chlorophenyl)-5-formylthiophene]
- inhibition at 10 ppm (Pythium splendens): ≥ 95%

Compound: C[S+]([O-])c1sc(C=O)cc1C#N (centres unmarked) [(28), 2-methylsulphinyl-3-cyano-5-formylthiophene]
- inhibition at 10 ppm (Pythium splendens): ≥ 95%

Compound: CCOC(=O)c1sc([S+](C)[O-])c(C#N)c1N (centres unmarked) [(29), 2-methylsulphinyl-3-cyano-4-amino-5-ethoxycarbonylthiophene]
- inhibition at 30 ppm (Fusarium culmorum): ≥ 75%

Compound: C[S+]([O-])c1sc(C(=O)c2ccccc2)cc1C#N (centres unmarked) [(30)]
- inhibition at 10 ppm (Pythium splendens): ≥ 95%

Compound: N#Cc1cc(C#N)c([S+]([O-])c2ccccc2)s1 (centres unmarked) [(32), 2-phenylsulphinyl-3,5-dicyanothiophene]
- inhibition at 10 ppm (Pythium splendens): ≥ 95%
- inhibition at 30 ppm (Fusarium culmorum): ≥ 75%
- inhibition at 30 ppm (Leptosphaeria nodorum): ≥ 85%

Compound: CCOC(=O)c1sc([S+]([O-])CC)c(C#N)c1Cl (centres unmarked) [(37), 2-ethylsulphinyl 3-cyano-4-chloro-5-ethoxycarbonylthiophene]
- inhibition at 30 ppm (Fusarium culmorum): ≥ 75%
- inhibition at 30 ppm (Leptosphaeria nodorum): ≥ 85%

Compound: CCCCCC[S+]([O-])c1sc(C#N)c(N)c1C#N (centres unmarked) [(38), 2-n-hexylsulphinyl-3,5-dicyano-4-aminothiophene]
- inhibition at 30 ppm (Fusarium culmorum): ≥ 75%

Compound: CCC[S+]([O-])c1sc(C#N)cc1C#N (centres unmarked) [(40), 2-n-propylsulphinyl 3,5-dicyanothiophene]
- inhibition at 10 ppm (Pythium splendens): ≥ 95%
- inhibition at 30 ppm (Fusarium culmorum): ≥ 75%
- inhibition at 30 ppm (Leptosphaeria nodorum): ≥ 85%

Compound: CCCC[S+]([O-])c1sc(C#N)c(OC)c1C#N (centres unmarked) [(41), 2-n-butylsulphinyl-3,5-dicyano 4-methoxythiophene]
- inhibition at 10 ppm (Pythium splendens): ≥ 95%
- inhibition at 30 ppm (Fusarium culmorum): ≥ 75%
- inhibition at 30 ppm (Leptosphaeria nodorum): ≥ 85%

Compound: CCCC[S+]([O-])c1sc(C(C)=O)cc1C#N (centres unmarked) [(44), 2-n-butylsulphinyl-3-cyano-5-acetylthiophene]
- inhibition at 30 ppm (Fusarium culmorum): ≥ 75%
- inhibition at 30 ppm (Leptosphaeria nodorum): ≥ 85%

Compound: CC[S+]([O-])c1sc(C#N)c(N)c1C#N (centres unmarked) [(46), 2-ethylsulphinyl-3,5-dicyano-4-aminothiophene]
- inhibition at 10 ppm (Pythium splendens): ≥ 95%

Compound: C[S+]([O-])c1sc(C=O)c(N)c1C#N (centres unmarked) [(48), 2-methylsulphinyl-3-cyano-4-amino-5-formylthiophene]
- inhibition at 10 ppm (Pythium splendens): ≥ 95%

Compound: CC[S+]([O-])c1sc(C=O)c(N)c1C#N (centres unmarked) [(49), 2-ethylsulphinyl-3-cyano-4-amino-5-formylthiophene]
- inhibition at 10 ppm (Pythium splendens): ≥ 95%

Compound: CC[S+]([O-])c1sc(C=O)c(Cl)c1C#N (centres unmarked) [(50), 2-ethylsulphinyl-3-cyano-4-chloro-5-formylthiophene]
- inhibition at 10 ppm (Pythium splendens): ≥ 95%

Compound: CC[S+]([O-])c1sc(C#N)c(N(C)C(C)=O)c1C#N (centres unmarked) [(54), 2-ethylsulphinyl-3,5-dicyano-4-(N-acetyl-N-methylamino)thiophene]
- inhibition at 10 ppm (Pythium splendens): ≥ 95%

Compound: CCC[S+]([O-])c1sc(C#N)c(OC)c1C#N (centres unmarked) [(55), 2-n-propylsulphinyl-3,5-dicyano-4-methoxythiophene]
- inhibition at 10 ppm (Pythium splendens): ≥ 95%
- inhibition at 30 ppm (Fusarium culmorum): ≥ 75%

Compound: CC[S+]([O-])c1sc(C=O)c(C)c1C#N (centres unmarked) [(56), 2-ethylsulphinyl-3-cyano-4-methyl-5-formylthiophene]
- inhibition at 10 ppm (Pythium splendens): ≥ 95%

Compound: CCC[S+]([O-])c1sc(C(C)=O)c(N)c1C#N (centres unmarked) [(57), 2-n-propylsulphinyl-3-cyano-4-amino-5-acetylthiophene]
- inhibition at 10 ppm (Pythium splendens): ≥ 95%
- inhibition at 30 ppm (Fusarium culmorum): ≥ 75%

Compound: CC(=O)COc1c(C(C)=O)sc([S+](C)[O-])c1C#N (centres unmarked) [(59), 2-methylsulphinyl-3-cyano-4-acetylmethoxy-5-acetylthiophene]
- inhibition at 10 ppm (Pythium splendens): ≥ 95%

Compound: C[S+]([O-])c1sc(S(C)(=O)=O)cc1C#N (centres unmarked) [(60), 2-methylsulphinyl-3-cyano-5-methylsulphonylthiophene]
- inhibition at 10 ppm (Pythium splendens): ≥ 95%

Compound: CCC[S+]([O-])c1sc(C(C)=O)c(Cl)c1C#N (centres unmarked) [(61), 2-n-propylsulphinyl-3-cyano-4-cloro-5-acetylthiophene]
- inhibition at 10 ppm (Pythium splendens): ≥ 95%
- inhibition at 30 ppm (Fusarium culmorum): ≥ 75%

Compound: CCC[S+]([O-])c1sc(C(C)=O)c(C)c1C#N (centres unmarked) [(62), 2-n-propylsulphinyl-3-cyano-4-methyl-5-acetylthiophene]
- inhibition at 30 ppm (Fusarium culmorum): ≥ 75%

Compound: CC[S+]([O-])c1sc(C#N)c(C)c1C#N (centres unmarked) [(63), 2-ethylsulphinyl-3,5-dicyano-4-methylthiophene]
- inhibition at 30 ppm (Leptosphaeria nodorum): ≥ 85%

Compound: CC[S+]([O-])c1sc(C(=O)c2ccccc2)cc1C#N (centres unmarked) [(64), 2-ethylsulphinyl-3-cyano-5-benzoylthiophene]
- inhibition at 30 ppm (Fusarium culmorum): ≥ 75%
- inhibition at 30 ppm (Leptosphaeria nodorum): ≥ 85%

Compound: CC[S+]([O-])c1sc(C(=O)c2ccccc2)c(N)c1C#N (centres unmarked) [(65), 2-ethylsulphinyl-3-cyano-4-amino-5-benzoylthiophene]
- inhibition at 30 ppm (Fusarium culmorum): ≥ 75%
- inhibition at 30 ppm (Leptosphaeria nodorum): ≥ 85%

Compound: CC[S+]([O-])c1sc(C#N)c(-n2cncn2)c1C#N (centres unmarked) [(68), 2-ethylsulphinyl-3,5-dicyano-4-(1,2,4-triazol-1-yl)thiophene]
- inhibition at 10 ppm (Pythium splendens): ≥ 95%

Compound: CC[S+]([O-])c1sc(C#N)c(-n2ccnc2)c1C#N (centres unmarked) [(69), 2-ethylsulphinyl-3,5-dicyano-4-(imidazol-1-yl)thiophene]
- inhibition at 10 ppm (Pythium splendens): ≥ 95%

Compound: C[S+]([O-])c1sc(C=O)cc1C=O (centres unmarked) [(70), 2-methylsulphinyl-3,5-diformylthiophene]
- inhibition at 10 ppm (Pythium splendens): ≥ 95%

Compound: CC[S+]([O-])c1sc(C#N)c(-c2ccccc2)c1C#N (centres unmarked) [(71), 2-ethylsulphinyl-3,5-dicyano-4-phenylthiophene]
- inhibition at 30 ppm (Fusarium culmorum): ≥ 75%
- inhibition at 30 ppm (Leptosphaeria nodorum): ≥ 85%

Compound: CCC[S+]([O-])c1sc(C(=O)c2ccc(Cl)cc2)cc1C#N (centres unmarked) [(73), 2-n-propylsulphinyl-3-cyano-5-(4-chlorobenzolyl)thiophene]
- inhibition at 30 ppm (Fusarium culmorum): ≥ 75%
- inhibition at 30 ppm (Leptosphaeria nodorum): ≥ 85%

Compound: CCC[S+]([O-])c1sc(C(=O)c2ccccc2)c(OC)c1C#N (centres unmarked) [(75), 2-n-propylsulphinyl-3-cyano-4-methoxy-5-benzoylthiophene]
- inhibition at 30 ppm (Fusarium culmorum): ≥ 75%
- inhibition at 30 ppm (Leptosphaeria nodorum): ≥ 85%

Compound: CC[S+]([O-])c1sc(C(=O)c2ccc(Cl)cc2)c(OC)c1C#N (centres unmarked) [(76), 2-ethylsulphinyl-3-cyano-4-methoxy-5-(4-chlorobenzoyl)thiophene]
- inhibition at 30 ppm (Leptosphaeria nodorum): ≥ 85%

Compound: CC[S+]([O-])c1sc(S(C)(=O)=O)c(Cl)c1C#N (centres unmarked) [(77), 2-ethylsulphinyl-3-cyano-4-chloro-5-methylsulphonyl-thiophene]
- inhibition at 10 ppm (Pythium splendens): ≥ 95%

Compound: CCCCCCCC[S+]([O-])c1sc(C#N)cc1C#N (centres unmarked) [(81), 2-n-octylsulphinyl-3,5-dicyanothiophene]
- inhibition at 30 ppm (Fusarium culmorum): ≥ 75%

Compound: CC[S+]([O-])c1sc(C=O)c(Cl)c1C=O (centres unmarked) [(83), 2-ethylsulphinyl-3,5-diformyl-4-chlorothiophene]
- inhibition at 10 ppm (Pythium splendens): ≥ 95%

Compound: CCS(=O)(=O)c1sc(S(C)(=O)=O)c(Cl)c1C#N [(84), 2-ethylsulphonyl-3-cyano-4-chloro-5-methylsulphonylthiophene]
- inhibition at 10 ppm (Pythium splendens): ≥ 95%

Compound: CC[S+]([O-])c1sc(C(C)=O)c(-c2ccccc2)c1C#N (centres unmarked) [(87), 2-ethylsulphinyl-3-cyano-4-phenyl-5-acetylthiophene]
- inhibition at 30 ppm (Fusarium culmorum): ≥ 75%
- inhibition at 30 ppm (Leptosphaeria nodorum): ≥ 85%

Compound: CCCC[S+]([O-])c1sc(C(=O)c2ccccc2)c(N)c1C#N (centres unmarked) [(88), 2-n-butylsulphinyl-3-cyano-4-amino-5-benzoylthiophene]
- inhibition at 30 ppm (Fusarium culmorum): ≥ 75%
- inhibition at 30 ppm (Leptosphaeria nodorum): ≥ 85%

Compound: CCCC[S+]([O-])c1sc(C(=O)c2ccccc2)cc1C#N (centres unmarked) [(90), 2-n-butylsulphinyl 3-cyano-5-benzoylthiophene]
- inhibition at 30 ppm (Fusarium culmorum): ≥ 75%

Compound: CC[S+]([O-])c1sc(C(=O)c2ccccc2)c(C)c1C#N (centres unmarked) [(91), 2-ethylsulphinyl-3-cyano-4-methyl-5-benzoylthiophene]
- inhibition at 30 ppm (Fusarium culmorum): ≥ 75%

Compound: CC[S+]([O-])c1sc(C(=O)c2ccccc2)c(Cl)c1C#N (centres unmarked) [(92), 2-ethylsulphinyl-3-cyano-4-chloro-5-benzoylthiophene]
- inhibition at 30 ppm (Fusarium culmorum): ≥ 75%
- inhibition at 30 ppm (Leptosphaeria nodorum): ≥ 85%

Compound: CS/C(=C(\C#N)c1ccccc1)[S+](C)[O-] (stereo not drawn) [(93), α-cyano-β-methylsulphinyl)-β-methylthio-styrene, E-isomer]
- inhibition at 10 ppm (Pythium splendens): ≥ 95%
- inhibition at 30 ppm (Fusarium culmorum): ≥ 75%
